Marks after values point to notes of the source that are not given here.
What was measured:
Type in all cases: in vivo, Swiss Albino mice
Tfh = assay: Immune health biomarkers (T helper subsets): Tfh; details: for Tfh(%) (mg/L): T helper subset in blood after 28 days, mice, n = 8; for Tfh Change over control [%]: vs Exercise Control, 28 days
Experimental: (§1) Eight 8-week-old male Swiss Albino mice per experimental group were housed in an animal room at a constant temperature (22±3° C.) and humidity (30%-70%) under a 12:12 h light-dark cycle with standard laboratory diet (Purina 5L79, Rat and Mouse 18% protein; PMI Nutrition International, Brentwood, MO, USA). Distilled water was provided ad libitum. All animal experiments were reviewed and approved by the Institutional Animal Ethical Committee (IAEC) of Radiant Research Services Pvt. Ltd (Bangalore, India). All research was conducted in accordance with the guidelines of the committee for the purpose of control and supervision of experiments on animals (CPCSEA Registration Number-1803/PO/RcBi/S/2015/CPCSEA).
(§2) After one week of acclimation, the animals were randomly divided by body weight into different groups (n=8 per group in each test) for oral treatment once a day, at approximately same time each day (+1 hour), for 28 consecutive days: (1) vehicle control; (2) paraxanthine (3) dileucine; (4) paraxanthine+dileucine; (5) L-arginine; (6) L-arginine+dileucine; (7) L-citrulline; and (8) L-citrulline+dileucine. The dose administered to the mice was calculated using US Food and Drug Administration for human equivalence doses (HED), assuming a human weight of 60 kg. The following HED were used in this study: 2,000 mg dileucine (RAMPS™, Ingenious Ingredients, L.P., Lewisville, TX, USA; mouse 411 mg/kg bw), 100 mg paraxanthine, (ENFINITY™, Ingenious Ingredients, L.P Lewisville, TX, USA; mouse dose: 20.5 mg/kg bw/day); 3,000 mg L-arginine (Nanjing Nutrabuilding Bio-tech Co., LTD., No. 270 Jiqingmen Strect, Suning Huigu, Building E6, Room 2105, Nanjing, China 210017; mouse 616.55 mg/kg bw), 3,000 mg L-citrulline (Nanjing Nutrabuilding Bio-tech Co., LTD., No. 270 Jiqingmen Street, Suning Huigu, Building E6, Room 2105, Nanjing, China 210017; mouse 616.55 mg/kg bw). 0.5% Carboxy Methyl Cellulose sodium was used as vehicle and the test item formulations were prepared daily. Dosing was conducted via oral gavage using disposable polypropylene syringes with sterilized stainless steel gavage tubes. The food intake and water consumption were monitored daily, and BW was recorded weekly. The last dose on day 28 was given 1 hour prior to testing.
(§3) Serum and plasma samples were separated by centrifuging the blood at 8000 rpm for 10 mins and analyze the below mentioned biomarkers, Biomarkers: TC, TG, LDL and HDL, CRP, Serum lactate, Ammonia, Glucose, NO, IL-2, IL-6, IL-10. Blood was collected in EDTA tubes for below mentioned biomarkers, Immune health Biomarkers (T helper subsets): TH1, TH2, TH17, Tfh, iTreg.

TH17 = assay: Immune health biomarkers (T helper subsets): TH17; details: for TH17(%): T helper subset in blood after 28 days, mice, n = 8; for TH17 Change over control [%]: vs Exercise Control, 28 days
Experimental: PMI Nutrition International, Brentwood, MO, USA). Distilled water was provided ad libitum. All animal experiments were reviewed and approved by the Institutional Animal Ethical Committee (IAEC) of Radiant Research Services Pvt. Ltd (Bangalore, India). All research was conducted in accordance with the guidelines of the committee for the purpose of control and supervision of experiments on animals (CPCSEA Registration Number-1803/PO/[…]). […] (1) vehicle control; […] (4) paraxanthine+dileucine; […] The dose administered to the mice was calculated using US Food and Drug Administration for human equivalence doses (HED), assuming a human weight of 60 kg. […] Dosing was conducted via oral gavage using disposable polypropylene syringes with sterilized stainless steel gavage tubes. The food intake and water consumption were monitored daily, and BW was recorded weekly. The last dose on day 28 was given 1 hour prior to testing. Serum and plasma samples were separated by centrifuging the blood at 8000 rpm for 10 mins and analyze the below mentioned biomarkers, Biomarkers: TC, TG, LDL and HDL, CRP, Serum lactate, Ammonia, Glucose, NO, IL-2, IL-6, IL-10. Blood was collected in EDTA tubes for below mentioned biomarkers, Immune health Biomarkers (T helper subsets): […]

iTreg = assay: Immune health biomarkers (T helper subsets): iTreg; details: for iTreg(%) (mg/L) / iTreg(%): T helper subset in blood after 28 days, mice, n = 8; for iTreg Change over control [%]: vs Exercise Control, 28 days
Experimental: as §1, §2, §3

nitric oxide = assay: NO signaling: nitric oxide level; details: for Nitric oxide (μmol/L) (mg/L): after 28 days of supplementation and exercise, mice, n = 8; for Nitric oxide Change over control [%]: vs Exercise Control, 28 days
Experimental: as §1, §2
(§4) All animals were euthanized by 95% CO2 after 28 days of following their assigned treatment. Blood was collected immediately after euthanization by the retro-orbital route and was immediately centrifuged at 1500×g for 10 min at 4° C. before having all serum transferred into cryogenic tubes and stored at −80° C.
as §3

C-reactive protein (CRP) = assay: Inflammatory markers: CRP; details: for CRP (mg/L): after 28 days of supplementation and exercise, mice, n = 8; for CRP Change over control [%]: vs Exercise Control, 28 days
Experimental: as §1, §2, §4, §3

[1] = Forelimb grip strength test; details: for Forelimb grip strength (gf) Day −0: Day −0 (baseline), mice, n = 8; for Forelimb grip strength (gf) Day −28: Day −28, one hour after treatment, oral once a day for 28 days; for Increase strength over Day −0: Day −28 minus Day −0; for Percentage Increase over control (grip strength): increase vs Exercise Control, 28 days
Experimental: as §1, §2
The forelimb grip strength was measured on day 0 and day 28 by using a stainless-steel grill to assess muscle strength (Orchid Scientific & Innovative India Pvt Ltd, India). Grip strength was measured one hour after treatment. Briefly, each mouse was placed on a grill chamber and the steel bar is inverted; grip strength is measured by recording the time each animal holds the steel bar. The maximum time for each trial was six minutes. Each animal performed three independent trials separated by six minutes intervals and the mean of the three trials was calculated.

[2] = Effect on body weight, 28-day oral supplementation with exercise; details: for Body Weight (grams) Day −0: Day −0 (baseline); for Body Weight (grams) Day −0 / Body Weight (grams) Day −28: mice, n = 8; for Weight gain in grams: Day −0 to Day −28, oral once a day; for Body Weight (grams) Day −28: Day −28, oral once a day for 28 days; for Percentage weight loss over control: weight gain vs Exercise Control, 28 days
Experimental: as §1, §2
Individual body weights were recorded at receipt, on the day of randomization, on the first day of treatment before dosing (Day 1) and weekly thereafter. The body weight changes for all the animals were calculated and reported along with the body weight data.

triglycerides (TG) = assay: Blood lipids: triglycerides; details: for TG: after 28 days of supplementation, mice, n = 8; for TG Change over control [%]: vs Exercise Control, 28 days
Experimental: as §1, §2, §4, §3

IL-10 = assay: Inflammatory markers: IL-10; details: for IL-10 (pg/ml): after 28 days of supplementation and exercise, mice, n = 8; for IL-10 Change over control [%]: vs Exercise Control, 28 days
Experimental: as §1, §2, §4, §3

SMILES	Tfh(%) (mg/L) (Tfh)	Tfh Change over control [%] (Tfh)	TH17(%) (TH17)	TH17 Change over control [%] (TH17)	iTreg Change over control [%] (iTreg)	Nitric oxide (μmol/L) (mg/L) (nitric oxide)	Nitric oxide Change over control [%] (nitric oxide)	CRP (mg/L) (C-reactive protein (CRP))	CRP Change over control [%] (C-reactive protein (CRP))	Forelimb grip strength (gf) Day −0 [1] [gf]	Forelimb grip strength (gf) Day −28 [1]	Increase strength over Day −0 [1] [gf]	Percentage Increase over control (grip strength) [1] [%]	Body Weight (grams) Day −0 [2] [grams]	Weight gain in grams [2] [grams]	Body Weight (grams) Day −28 [2]	Percentage weight loss over control [2] [%]	TG (triglycerides (TG)) [mg/dL]	TG Change over control [%] (triglycerides (TG))	IL-10 (pg/ml) (IL-10)	further results
CC(C)C[C@H](NC(=O)[C@@H](N)CC(C)C)C(=O)O [Dileucine, L-Leucyl-L-leucine]	55.72%	613	29.62*** %	712	−66	84.83*** μmol/L	34	0.63*** mg/L	−18	99.25	149.0*** gf	49.75	76	24.09	9.14	33.23* grams	−15	92.66	−3	569.36*** pg/ml	iTreg(%) (mg/L) (iTreg): 18.68*** %; IL-10 Change over control [%] (IL-10): 8%
N=C(N)NCCC[C@H](N)C(=O)O [L-Arginine, L-arginine]	44.16*** %	465	26.16*** %	617	−34	77.98* μmol/L	29	0.69*** mg/L	−16	99.75	139.13*** gf	39.38	39	23	10.01	33.01* grams	−7	94.1	−2	565.47** pg/ml	iTreg(%) (iTreg): 35.86*** %; IL-10 Change over control [%] (IL-10): 5%
NC(=O)NCCC[C@H](N)C(=O)O [L-Citrulline, L-citrulline]	40.87*** %	423	25.89*** %	609	−29	77.61 µmol/L	28	0.69*** mg/L	−16	97.63	138.5*** gf	40.87	45	22.49	9.83	33.01* grams	−9	94.58	−2	559.63** pg/ml	iTreg(%) (iTreg): 38.83*** %; IL-10 Change over control [%] (IL-10): 4%
Cn1c(=O)[nH]c2ncn(C)c2c1=O [Paraxanthine, 1,7-dimethylxanthine]	54.96*** %	603	31.33*** %	758	−57	84.29*** μmol/L	33	0.64** mg/L	−17	98.38	148.88*** gf	50.5	79	24.35	8.86	33.21* grams	−18	91.94	−4	571.71*** pg/ml	iTreg(%) (mg/L) (iTreg): 23.68*** %; IL-10 Change over control [%] (IL-10): 8%

Source: US20240299484A1, “DILEUCINE COMPOSITIONS AND METHODS OF USE THEREOF” (Ingenious Ingredients, LP, priority 2023, published 2024)
